Source: patent US20260297092A1, “PYRAZOLOPYRIMIDINE DERIVATIVES AS INHIBITORS OF NLRP3” (Takeda Pharmaceutical Company Limited, priority 2023, published 2026)

Experiments:
[1] = test system: NLRP3 inflammasome (IL-1β production in THP-1 cells); test: IL-1β TR-FRET Assay (percentage of inhibition at 300 nM, 6 μM or 10 μM); format: cell-based, human; settings: Homo sapiens, LPS priming, ATP activation; for inhibition at 0.3 µM: THP-1, 300 nM, read-out: IL-1β inhibitory rate at 300 nM (%); for inhibition at 6 µM: THP-1, 6 μM, read-out: IL-1β inhibitory rate at 6 μM (%)
Method in brief: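 Percent inhibition of IL-1β used DMSO wells as 0% and 3 μM MCC-950 wells as full inhibition, with supernatant read by HTRF. Beforehand, IFN-γ-differentiated (25 ng/mL, 24 h), LPS-primed (50 ng/mL, 24 h) THP-1 cells received compound 30 min before inflammasome activation by 20 mM ATP for 2 h.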

[2] = test system: TNF-α (NF-κB pathway, THP-1 cells); test: TNF-α Assay (IC50); format: cell-based, human; settings: Homo sapiens, 600 ng/mL LPS, 3 hours
Method in brief: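 Supernatant TNF-α quantified by ELISA after 3 h stimulation with 600 ng/mL LPS at 37 °C, following 30 min compound preincubation. Cells: IFN-differentiated (25 ng/mL, 24 h) THP-1 macrophages, 40,000/well, serum-free. IC50 by sigmoidal fit of % inhibition, with TPCA-1 as 100% control.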

| Structure (SMILES) | IC50 [2] | inhibition at 0.3 µM [1] | inhibition at 6 µM [1] |
| --- | --- | --- | --- |
| CCOc1nc2nn(-c3c(O)cc(C)cc3F)c(C)c2c(=O)[nH]1 [Example 51, 6-ethoxy-2-(2-fluoro-6-hydroxy-4-methylphenyl)-3-methyl-2,5-dihydro-4H-pyrazolo[3,4-d]pyrimidin-4-one] | > 30 µM | 100% | – |
| CCOc1nc2nn(-c3ncc(Br)cc3Br)cc2c(=O)[nH]1 [Example 161, 2-(3,5-dibromopyridin-2-yl)-6-ethoxy-2,5-dihydro-4H-pyrazolo[3,4-d]pyrimidin-4-one] | > 30 µM | 97% | – |
| COC[C@H](C)Oc1nc2nn(-c3c(F)cc(C4CC4)cc3C(F)F)cc2c(=O)[nH]1 [Example 205, 2-[4-cyclopropyl-2-(difluoromethyl)-6-fluorophenyl]-6-{[(2S)-1-methoxypropan-2-yl]oxy}-2,5-dihydro-4H-pyrazolo[3,4-d]pyrimidin-4-one] | > 30 µM | 95% | – |
| Cc1ccc(-n2cc3c(=O)[nH]c(OCC(C)(F)F)nc3n2)c(O)c1 [Example 86, 6-(2,2-difluoropropoxy)-2-(2-hydroxy-4-methylphenyl)-2,5-dihydro-4H-pyrazolo[3,4-d]pyrimidin-4-one] | > 30 µM | 85% | – |
| CCOc1nc2nn(-c3ccc(C)cc3O)c(Cl)c2c(=O)[nH]1 [Example 31, 3-chloro-6-ethoxy-2-(2-hydroxy-4-methylphenyl)-2,5-dihydro-4H-pyrazolo[3,4-d]pyrimidin-4-one] | > 30 µM | 99% | – |

Second part, led by results:

| IC50 [2] | Structure (SMILES) | inhibition at 0.3 µM [1] | inhibition at 6 µM [1] |
| --- | --- | --- | --- |
| > 30 µM | CCOc1nc2nn(-c3c(F)cc(C)cc3C3CC3(F)F)cc2c(=O)[nH]1 (centres unmarked) [Example 79, 2-[2-(2,2-difluorocyclopropyl)-6-fluoro-4-methylphenyl]-6-ethoxy-2,5-dihydro-4H-pyrazolo[3,4-d]pyrimidin-4-one] | 95% | – |
| > 30 µM | Cc1cc(C2CC2)cc(C)c1-n1cc2c(=O)[nH]c(-c3cnn(C)n3)nc2n1 [Example 258, 2-(4-cyclopropyl-2,6-dimethylphenyl)-6-(2-methyl-2H-1,2,3-triazol-4-yl)-2,5-dihydro-4H-pyrazolo[3,4-d]pyrimidin-4-one] | – | 100% |
| > 30 µM | Cc1cc(C)c(-n2cc3c(=O)[nH]c(OCC(F)(F)F)nc3n2)c(O)c1 [Example 55, 2-(2-hydroxy-4,6-dimethylphenyl)-6-(2,2,2-trifluoroethoxy)-2,5-dihydro-4H-pyrazolo[3,4-d]pyrimidin-4-one] | 98% | – |
| > 30 µM | O=c1[nH]c(COC(F)F)nc2nn(-c3c(F)cc(C4CC4)cc3C(F)F)cc12 [Example 302, 2-[4-cyclopropyl-2-(difluoromethyl)-6-fluorophenyl]-6-[(difluoromethoxy)methyl]-2,5-dihydro-4H-pyrazolo[3,4-d]pyrimidin-4-one] | – | 96% |
| > 30 µM | Cc1cc(C)c(-n2cc3c(=O)[nH]c(-c4ncccn4)nc3n2)c(O)c1 [Example 34, 2-(2-hydroxy-4,6-dimethylphenyl)-6-(pyrimidin-2-yl)-2,5-dihydro-4H-pyrazolo[3,4-d]pyrimidin-4-one] | 98% | – |
| > 30 µM | Cc1cc(C2CC2)cc(C(F)F)c1-n1cc2c(=O)[nH]c(C3COCCO3)nc2n1 (racemic) [Example 316, 2-[4-cyclopropyl-2-(difluoromethyl)-6-methylphenyl]-6-(1,4-dioxan-2-yl)-2,5-dihydro-4H-pyrazolo[3,4-d]pyrimidin-4-one] | – | 104% |
| > 30 µM | CCOc1nc2nn(-c3c(F)cc(Br)cc3Br)cc2c(=O)[nH]1 [Example 128, 2-(2,4-dibromo-6-fluorophenyl)-6-ethoxy-2,5-dihydro-4H-pyrazolo[3,4-d]pyrimidin-4-one] | 97% | – |
| > 30 µM | CCOc1nc2nn(-c3c(C)cc(C)c(F)c3F)cc2c(=O)[nH]1 [Example 96, 2-(2,3-difluoro-4,6-dimethylphenyl)-6-ethoxy-2,5-dihydro-4H-pyrazolo[3,4-d]pyrimidin-4-one] | 55% | – |
